Test [1] addresses T1, DNA topoisomerase 1 (Homo sapiens) (UniProt P11387).
T1 sequence (whole entry): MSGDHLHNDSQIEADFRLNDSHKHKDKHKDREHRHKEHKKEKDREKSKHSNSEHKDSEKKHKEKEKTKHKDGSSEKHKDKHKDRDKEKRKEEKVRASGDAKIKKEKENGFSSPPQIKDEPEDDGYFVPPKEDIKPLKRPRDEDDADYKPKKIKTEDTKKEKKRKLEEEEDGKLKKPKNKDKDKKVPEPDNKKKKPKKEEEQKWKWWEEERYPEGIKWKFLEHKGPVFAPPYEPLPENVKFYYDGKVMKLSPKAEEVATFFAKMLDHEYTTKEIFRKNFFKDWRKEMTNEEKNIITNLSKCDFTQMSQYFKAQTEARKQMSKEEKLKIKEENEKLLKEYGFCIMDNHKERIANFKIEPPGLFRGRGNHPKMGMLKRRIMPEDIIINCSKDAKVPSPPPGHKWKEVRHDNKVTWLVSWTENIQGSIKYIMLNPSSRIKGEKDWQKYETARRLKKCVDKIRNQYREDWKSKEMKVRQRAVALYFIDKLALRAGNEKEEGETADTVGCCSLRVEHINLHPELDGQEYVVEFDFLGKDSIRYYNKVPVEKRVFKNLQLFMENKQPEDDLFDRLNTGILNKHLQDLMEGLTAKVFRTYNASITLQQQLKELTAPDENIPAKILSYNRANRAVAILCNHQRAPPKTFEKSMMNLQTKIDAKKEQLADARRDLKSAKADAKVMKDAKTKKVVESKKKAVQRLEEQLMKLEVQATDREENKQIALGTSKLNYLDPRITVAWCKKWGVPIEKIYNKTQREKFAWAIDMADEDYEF
The experiment in a line: Inhibition of human DNA topoisomerase 1 at 100 uM using supercoiled pBR322 DNA as substrate incubated for 30 mins by EtBr staining based agarose gel electrophoresis method relative to control.

For test [2], the target named is DNA topoisomerase 2-alpha (Homo sapiens) (UniProt P11388). The experiment in a line: Inhibition of human DNA topoisomerase 2 alpha at 100 uM using supercoiled pBR322 DNA as substrate incubated for 30 mins by EtBr staining based agarose gel electrophoresis method relative to control.
For test [3] the target is unchanged. The experiment in a line: Inhibition of human DNA topoisomerase 2 alpha at 20 uM using supercoiled pBR322 DNA as substrate incubated for 30 mins by EtBr staining based agarose gel electrophoresis method relative to control.
The test system of test [4] is T47D. The experiment in a line: Antiproliferative activity against human T47D cells incubated for 72 hrs by microplate reader analysis. The class given is functional, cell-based.
The subject of test [5] is HCT-15. The experiment in a line: Antiproliferative activity against human HCT-15 cells incubated for 72 hrs by microplate reader analysis. It is filed as functional, cell-based. The note with it: HCT-15, 72 h.
Test [6] has as its system DU-145. The experiment in a line: Antiproliferative activity against human DU-145 cells incubated for 72 hrs by microplate reader analysis. To be noted: DU-145, 72 h. It is filed as functional, cell-based.
Test [7] relates to HeLa. The experiment in a line: Antiproliferative activity against human HeLa cells incubated for 72 hrs by microplate reader analysis. The class given is functional, cell-based.
In test [8] the test system is Calf thymus DNA. The experiment in a line: Displacement of EtBr from calf thymus DNA assessed as reduction in fluorescence intensity at 5 to 40 uM preincubated with EtBr for 30 mins followed by compound addition and measured after 30 mins by microplate reader analysis. To be noted: Bos taurus, dose 5-40 µM. It is filed as nucleic-acid assay.
Test [9] addresses DNA topoisomerase 2-alpha (Homo sapiens) (UniProt P11388). The experiment in a line: Catalytic inhibition of human DNA topoisomerase 2 alpha expressed in baculovirus infected insect cells assessed as reduction in linear DNA formation at 200 to 500 uM using supercoiled pBR322 DNA as substrate incubated for 30 mins by agarose gel electrophoresis. To be noted: dose 200-500 µM.
For test [10] the target is unchanged. The experiment in a line: Poison activity at topoisomerase 2 alpha in human HCT-15 cells at 20 uM incubated for 24 hrs by alkaline comet assay. It is filed as cell-based.

Among the data in ChEMBL document CHEMBL5325474, “Di-indenopyridines as topoisomerase II-selective anticancer agents: Design, synthesis, and structure-activity relationships” (Bioorg Med Chem, 2023) are inhibition, IC50 and Activity values, retold here.

The structures appear in SMILES notation. Activity calls are given as the source filed them. The calls are words filed in the database; no cut-off is given here.

Usually inhibition stands for how much of the control response was suppressed. The term IC50 denotes the concentration at which inhibition is half-maximal. A lower IC50 goes with greater potency.

DNA topoisomerase 2-alpha (Homo sapiens), sequence (P11388 whole entry): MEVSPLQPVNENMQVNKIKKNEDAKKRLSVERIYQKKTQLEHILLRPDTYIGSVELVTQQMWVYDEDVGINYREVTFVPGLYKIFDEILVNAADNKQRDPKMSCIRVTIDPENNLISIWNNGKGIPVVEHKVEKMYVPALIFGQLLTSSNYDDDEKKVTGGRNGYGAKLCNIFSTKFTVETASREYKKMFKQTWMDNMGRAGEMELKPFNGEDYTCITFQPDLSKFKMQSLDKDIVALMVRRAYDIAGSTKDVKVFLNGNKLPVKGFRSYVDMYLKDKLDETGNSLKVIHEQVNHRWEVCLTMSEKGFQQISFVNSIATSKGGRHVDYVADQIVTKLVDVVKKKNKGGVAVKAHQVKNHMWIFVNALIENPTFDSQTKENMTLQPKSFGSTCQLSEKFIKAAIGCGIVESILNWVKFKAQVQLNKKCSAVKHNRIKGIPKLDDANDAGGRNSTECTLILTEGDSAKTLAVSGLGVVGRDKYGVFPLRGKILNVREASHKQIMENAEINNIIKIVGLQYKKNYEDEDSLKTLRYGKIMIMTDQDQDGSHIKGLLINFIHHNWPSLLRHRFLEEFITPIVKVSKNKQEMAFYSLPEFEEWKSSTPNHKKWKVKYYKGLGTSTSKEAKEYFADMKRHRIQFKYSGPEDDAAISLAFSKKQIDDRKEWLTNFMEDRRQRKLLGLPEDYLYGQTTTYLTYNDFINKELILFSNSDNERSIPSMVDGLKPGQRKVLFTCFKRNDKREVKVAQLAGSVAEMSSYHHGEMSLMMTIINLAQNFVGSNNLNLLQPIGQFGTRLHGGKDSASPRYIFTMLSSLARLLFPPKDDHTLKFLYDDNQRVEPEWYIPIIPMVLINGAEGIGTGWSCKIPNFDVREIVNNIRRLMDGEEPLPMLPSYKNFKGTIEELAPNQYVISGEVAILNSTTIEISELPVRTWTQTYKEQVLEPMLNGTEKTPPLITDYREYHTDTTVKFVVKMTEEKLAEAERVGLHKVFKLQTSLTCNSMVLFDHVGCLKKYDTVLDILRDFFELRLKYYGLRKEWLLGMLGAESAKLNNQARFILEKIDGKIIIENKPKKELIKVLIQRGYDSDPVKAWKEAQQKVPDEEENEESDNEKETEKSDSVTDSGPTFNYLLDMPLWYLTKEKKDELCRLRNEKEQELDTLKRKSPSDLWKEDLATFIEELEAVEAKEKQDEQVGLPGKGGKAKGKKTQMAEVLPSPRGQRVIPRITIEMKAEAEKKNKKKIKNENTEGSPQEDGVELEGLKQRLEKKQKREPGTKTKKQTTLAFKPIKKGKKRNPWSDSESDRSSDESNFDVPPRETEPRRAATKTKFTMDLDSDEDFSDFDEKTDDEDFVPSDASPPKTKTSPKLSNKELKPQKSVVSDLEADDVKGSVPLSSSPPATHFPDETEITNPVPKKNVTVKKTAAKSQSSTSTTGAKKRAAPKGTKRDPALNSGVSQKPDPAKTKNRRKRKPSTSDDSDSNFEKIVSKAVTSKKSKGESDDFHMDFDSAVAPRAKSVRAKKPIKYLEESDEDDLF

Turning to `Oc1cccc2c1Cc1c-2nc2c(c1-c1ccco1)Cc1c(O)cccc1-2`, the results for the inhibition in [1], in test [2] and in [3] were -0%, 100% and 100%, respectively. For the same compound, the half-inhibitory concentration (IC50) in test [4] turned out to be 4.16 µM; in [5] it was 1710 nM; in test [6] it was 5.23 µM; in test [7], 9.63 µM. The outcome in test [8] and in test [10] was inactive. Moreover, in test [9], the inhibition entry was “Active”.
